These results are taken from PubChem BioAssay (NCI).

Some test systems named below: HOP-62 NSCLC; HOP-92 NSCLC; HT29 colon; K-562 leukemia; LOX IMVI melanoma; NCI-H226 lung; OVCAR-3 ovarian; SF-295 CNS; SK-MEL-28 melanoma; MCF7 breast.
Assay in all cases: NCI anticancer screen, dose series, 48 h

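48-hour exposure; five concentrations; linearly interpolated endpoints. The concentration for 50% growth inhibition is given as GI50. TGI denotes the concentration required for complete inhibition of growth.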 Bounds are passed on as bounds.

On to `Cc1ccc(NC(=O)C(=O)C(C#N)c2ccccc2C)cc1C` (stereo not given), for which the TGI was greater than 100 µM with HOP-62 NSCLC; greater than 100 µM with HOP-92 NSCLC; greater than 100 µM in the assay with HT29 colon; greater than 70.1 µM in the assay on K-562 leukemia; greater than 55.3 µM with LOX IMVI melanoma; greater than 100 µM in the assay on NCI-H226 lung. Moreover, the TGI with OVCAR-3 ovarian, in the assay with SF-295 CNS and with SK-MEL-28 melanoma was greater than 100 µM throughout.

Turning to `COc1ccc(OC)c(/C=C2\SC(=S)NC2=O)c1`, the GI50 in the assay on HOP-62 NSCLC is 30.9 µM; with HOP-92 NSCLC it was 16 µM; in the assay with HT29 colon, 42.1 µM; in the assay on K-562 leukemia, 42.5 µM; in the assay on LOX IMVI melanoma it was 26.6 µM; with MCF7 breast, 23.5 µM. The GI50 in the assay with OVCAR-3 ovarian was 36.7 µM; with SF-295 CNS, 42.8 µM; in the assay on SK-MEL-28 melanoma, 42.4 µM. In addition, the TGI with HOP-62 NSCLC is greater than 100 µM; in the assay on HOP-92 NSCLC, 55.4 µM; with HT29 colon, greater than 100 µM; with K-562 leukemia, greater than 100 µM; with LOX IMVI melanoma it was greater than 100 µM; with MCF7 breast it was greater than 100 µM. Also, the TGI in the assay with OVCAR-3 ovarian, with SF-295 CNS and in the assay on SK-MEL-28 melanoma was greater than 100 µM each time.

For `COc1ccc(-c2csc(N(C(=O)N3CCN(c4cc5c(cc4F)c(=O)c(C(=O)O)cn5C4CC4)CC3)c3ccccc3)n2)cc1`, the GI50 with HOP-62 NSCLC is 1.12 µM; in the assay on HOP-92 NSCLC it was 0.597 µM; with HT29 colon, 3.62 µM; with K-562 leukemia, 3.1 µM; with MCF7 breast it was 3.09 µM; with NCI-H226 lung, 3.18 µM. The GI50 with SF-295 CNS is 2.49 µM; with SK-MEL-28 melanoma it was 5.17 µM. Further, the TGI in the assay with HOP-62 NSCLC was greater than 79 µM; with HOP-92 NSCLC, 2.14 µM; in the assay with HT29 colon, 46.2 µM; in the assay with K-562 leukemia it was greater than 100 µM; in the assay with MCF7 breast, greater than 100 µM; in the assay on NCI-H226 lung it was 21.7 µM. Also, the TGI with SF-295 CNS was 8.61 µM; with SK-MEL-28 melanoma it was greater than 100 µM.

Turning to `CC(CCC(=O)O)[C@H]1CCC2[C@@H]3CC[C@@H]4CC(O)CC[C@]4(C)C3CC[C@@]21C` (stereo not given in full), the GI50 was 37.2 µM in the assay on HOP-62 NSCLC; 28 µM with HOP-92 NSCLC; 46.1 µM with HT29 colon; 32.6 µM in the assay on K-562 leukemia; 29.5 µM with LOX IMVI melanoma; 30.2 µM in the assay on MCF7 breast. The GI50 in the assay on NCI-H226 lung is 63.5 µM; in the assay with SK-MEL-28 melanoma, 54.4 µM. The TGI in the assay on HOP-62 NSCLC is greater than 100 µM; in the assay on HOP-92 NSCLC it was 87.9 µM; in the assay on HT29 colon, greater than 100 µM; in the assay on K-562 leukemia it was greater than 100 µM; in the assay on LOX IMVI melanoma, greater than 100 µM; in the assay on MCF7 breast, greater than 100 µM. Moreover, the TGI with NCI-H226 lung and in the assay on SK-MEL-28 melanoma was greater than 100 µM in each case.

For `Cc1ccc(C(=O)c2nnc(C(=O)c3ccc(C)cc3)nn2)cc1`, the TGI in the assay with HOP-62 NSCLC was greater than 100 µM; in the assay with HOP-92 NSCLC, greater than 100 µM; with HT29 colon, greater than 100 µM; with K-562 leukemia it was 55.8 µM; with LOX IMVI melanoma, 35.6 µM; with NCI-H226 lung, greater than 100 µM. Moreover, the TGI in the assay with OVCAR-3 ovarian, in the assay on SF-295 CNS and in the assay with SK-MEL-28 melanoma was greater than 100 µM throughout.

In the case of `Cc1ccccc1[P+](Cc1ccccc1)(c1ccccc1)c1ccccc1`, the GI50 was 4.34 µM in the assay on HOP-62 NSCLC; 1.79 µM in the assay on HT29 colon; 1.08 µM in the assay with K-562 leukemia; 2.27 µM in the assay on LOX IMVI melanoma; 0.89 µM in the assay with MCF7 breast; 2.35 µM with NCI-H226 lung. In addition, the GI50 with OVCAR-3 ovarian was 1.42 µM; in the assay on SF-295 CNS, 1.75 µM; in the assay on SK-MEL-28 melanoma it was 2.91 µM. Further, the TGI in the assay with HOP-62 NSCLC was greater than 100 µM; in the assay on HT29 colon it was 29 µM; in the assay on K-562 leukemia, greater than 100 µM; with LOX IMVI melanoma, 15.3 µM; in the assay on MCF7 breast, greater than 100 µM; in the assay on NCI-H226 lung it was greater than 100 µM. The TGI was greater than 100 µM in the assay with OVCAR-3 ovarian, 5.28 µM with SF-295 CNS and 37.9 µM with SK-MEL-28 melanoma.

Regarding `O=C1CC(c2ccc(O)cc2)C2(O1)C(=O)OC(C(O)CO)C2O` (stereo not given), the TGI with HOP-62 NSCLC, with HT29 colon, in the assay on K-562 leukemia, with LOX IMVI melanoma, with MCF7 breast and in the assay on NCI-H226 lung was greater than 100 µM each time. Also, the TGI in the assay with OVCAR-3 ovarian, in the assay on SF-295 CNS and in the assay with SK-MEL-28 melanoma was greater than 100 µM throughout.

With `CCOc1ccc(NC(=O)C(=O)CC(=O)C2=C(C)Nc3ccccc3S2)cc1`, the TGI in the assay on HOP-62 NSCLC, with HOP-92 NSCLC, in the assay on HT29 colon, with K-562 leukemia, in the assay with LOX IMVI melanoma and with NCI-H226 lung was greater than 50 µM each time. The TGI with OVCAR-3 ovarian, in the assay on SF-295 CNS and with SK-MEL-28 melanoma was greater than 50 µM throughout.

Regarding `COc1cc(C(=O)C/C(CCCC(=O)Nc2ccccc2[N+](=O)[O-])=N/NC(=O)c2cc3ccccc3cc2O)ccc1O`, the TGI in the assay on HOP-62 NSCLC is greater than 100 µM; with HOP-92 NSCLC it was greater than 100 µM; with HT29 colon, greater than 100 µM; with K-562 leukemia, greater than 100 µM; in the assay with LOX IMVI melanoma it was greater than 65.4 µM; in the assay on NCI-H226 lung, greater than 100 µM. The TGI with OVCAR-3 ovarian, in the assay with SF-295 CNS and in the assay with SK-MEL-28 melanoma was greater than 100 µM each time.

Turning to `COc1cc(/C=C/c2cc(O)c3cc(C(C)=O)c(=O)oc3c2)cc2c1O[C@]1(C)CC[C@@H](O)C(C)(C)[C@H]1C2`, the GI50 in the assay on HOP-62 NSCLC was greater than 26.8 µM; in the assay on HT29 colon, greater than 24.9 µM; in the assay on NCI-H226 lung, greater than 23.7 µM; in the assay on OVCAR-3 ovarian, greater than 33.1 µM. In addition, the TGI in the assay on HOP-62 NSCLC is greater than 79.9 µM; with HOP-92 NSCLC it was greater than 28.5 µM; in the assay with HT29 colon, greater than 62.2 µM; in the assay with K-562 leukemia it was greater than 100 µM; in the assay with LOX IMVI melanoma, greater than 42.2 µM; in the assay with MCF7 breast it was greater than 39.3 µM. In addition, the TGI with NCI-H226 lung is greater than 64.9 µM; in the assay with OVCAR-3 ovarian, greater than 89.1 µM; in the assay with SK-MEL-28 melanoma, greater than 21.4 µM.

As to `O=C(CN1CCOCC1)Nc1nc(-c2ccc(Cl)cc2)cs1`, the TGI is 73.1 µM with HOP-62 NSCLC; greater than 100 µM in the assay on HOP-92 NSCLC; greater than 100 µM in the assay with HT29 colon; 94.5 µM with K-562 leukemia; 58.7 µM in the assay on LOX IMVI melanoma; 60.9 µM in the assay with NCI-H226 lung. Also, the results for the TGI in the assay on OVCAR-3 ovarian, with SF-295 CNS and with SK-MEL-28 melanoma were 76.9 µM, greater than 100 µM and 74.8 µM, respectively.
